# Patent US8937066B2, “Amino derivatives of dihydro-1,3,5-triazine used in the treatment of ischemia and/or reperfusion related diseases” (Poxel, priority 2009, dated 2015)
# Legend:
# [1] = system: human immortalized microvascular dermal endothelial cells HMEC-1; assay: Mitochondrial membrane potential (TMRM, confocal microscopy) after ischemia/reperfusion; assay type: cell-based; conditions: 10 mM for 30 min; for mitochondrial membrane potential after reperfusion: then 60 min ischemia and 90/120 min reperfusion
# Method: The objective of this study is to evaluate the protective effect of the compound E 008 on vascular injury due to ischemia/reperfusion, by measuring the effect of E 008 on loss of mitochondrial membrane potential induced by ischemia/reperfusion.
# The line of human immortalized microvascular dermal endothelial cells HMEC-1 was used.
# The cells were treated according to the following scheme: • control group: no treatment, followed by ischemia of 60 min and reperfusion of 120 min. • metformin group: incubation with metformin at a concentration of 10 mM for 30 min, followed by ischemia of 60 min and reperfusion of 120 min. • E 008 group: incubation with the compound E 008 at a concentration of 10 mM for 30 min followed by ischemia of 60 min and reperfusion of 120 min. Measurement of Mitochondrial Membrane Potential
# In order to measure the mitochondrial potential, the cells were incubated, throughout the above treatment, with the fluorescent probe tetramethylrhodamine methyl ester (TMRM) at a concentration of 30 nM.
# They were analyzed in confocal microscopy before treatment, after 60 min of ischemia, after 90 min of reperfusion and after 120 min of reperfusion (FIG. 1).
# [2] = system: infarct size / area at risk; assay: Model of myocardial infarction in the rabbit (30 min coronary occlusion, 4 h reperfusion); assay type: in vivo; conditions: for AN (area of necrosis) / AN/AR / AN/LV: group mean (extent of values)
# Method: Male New Zealand albino rabbits weighing between 2.2 and 2.5 kg were anesthetized by intramuscular injection of xylazine (5 mg/kg) and ketamine (50 mg/kg). An intravenous infusion of a mixture of xylazine (20 to 50 μg/kg/min) and ketamine (40 to 100 μg/kg/min) was maintained throughout the test.
# After a median cervical incision, a tracheotomy was performed and the animals were ventilated with ambient air. A cannula was inserted in the right internal jugular vein for administration of the medicinal products and fluids and in the left carotid artery for measurement of blood pressure. After an intravenous bolus administration of fentanyl ([…]), a left thoracotomy was performed at the level of the fourth left intercostal space. The pericardium was opened and the heart was exposed. A 3.0 suture thread attached to a small curved needle was passed around a marginal branch of the left circumflex coronary artery. The two ends of the thread were passed through a small vinyl tube to form a collar that could be tightened for occluding and released for reperfusing the artery. Body temperature was monitored via an intraperitoneal thermometer and kept constant by means of a heating block. The heart rate and arterial pressure were monitored continuously on a Gould recorder (Gould Inc., Cleveland, Ohio).
# After surgery, a period of stabilization of 15 minutes was observed.
# The rabbits are randomly distributed into 4 groups. All the animals undergo a prolonged occlusion of 30 minutes of the coronary artery, followed by 4 hours of reperfusion. Five minutes before reperfusion, the rabbits receive an intravenous injection of either: • a vehicle (volume corresponding to dose 1 or 2 of E 008) (Control, C), • E 008 at dose 1, • E 008 at dose 2, • of ciclosporin A (CsA) at 10 mg/kg.
# The sample size is 8 to 10 animals per group. In these groups, the hearts were collected at the end of the period of 4 hours of reperfusion for subsequent evaluation of infarct size.
# After 4 hours of reperfusion, the coronary artery was briefly reoccluded and 0.5 mg/kg of Uniperse blue pigment (Ciba-Geigy®, Hawthorne N.Y.) was injected intravenously for delimiting the area at risk in viva With this technique, the previously nonischemic myocardium appears blue, whereas the previously ischemic myocardium (area at risk) remains unstained.
# The anesthetized rabbits were then euthanized by intravenous injection of pentobarbital. The heart was excised and cut into transverse slices with thickness of 5 to 6 mm, parallel to the atrioventricular sulcus. After removing the tissue of the right ventricle, each slice was weighed. The basal surface of each slice was photographed for later measurement of the area at risk. Each slice was then incubated for 15 minutes in a 1% solution of triphenyltetrazolium chloride at 37° C. for differentiating the myocardial zones that were infarcted (pale) and viable (brick red). The slices were then photographed again. Magnified projections of these slices were traced for determining the boundaries of the area at risk (AR) and of the area of necrosis (AN). The extent of these areas at risk and of necrosis was quantified by planimetry by computer and corrected relative to the weight of the tissue slices. The total weights of the area at risk and of the area of necrosis were then calculated and expressed in grams and as a percentage of total left ventricle (LV) and of the weight of the area at risk, respectively. […] Evaluation of infarct size was performed blind.
# The results are presented in the following table in the form of value averaged for all the animals of a group, the figure in parentheses representing the extent of the values measured for the different animals.
# [3] = system: complex I of the respiratory chain of endothelial cells; assay: ROS production by complex I of the respiratory chain; assay type: cell-based; conditions: by inhibiting reverse electron flow
# [4] = E 008 1 mg/kg i.v. 5 min before reperfusion
# [5] = E 008 5 mg/kg i.v. 5 min before reperfusion
structure (smiles),measurement,setting,value
CC1N=C(N)NC(N(C)C)=N1 (stereo not shown) [E 008],mitochondrial membrane potential after reperfusion,[1],protected from the damage due to reperfusion
same,protective effect against loss of membrane potential compared with metformin,[1]; then 60 min ischemia and 120 min reperfusion,better protective effect
same,AN (area of necrosis),[2]; [4],0.31 (±0.15) g
same,AN/AR,[2]; [4],33.9 (±12.2) %
same,AN/LV,[2]; [4],11.8 (±5) %
same,protection in the model of myocardial infarction,[2]; E 008 5 mg/kg i.v.,significant protection
same,AN (area of necrosis),[2]; [5],0.21 (±0.09) g
same,AN/AR,[2]; [5],29.4 (±10.3) %
same,AN/LV,[2]; [5],8.3 (±3.7) %
same,infarct size relative to ciclosporin A,[2]; E 008 5 mg/kg i.v. vs CsA 10 mg/kg,reduction in infarct size relative to ciclosporin A
same,infarct size relative to the control,"[2]; i.v. 5 min before reperfusion, dose not given",significant reduction in infarct size
same,production of ROS by complex I of the respiratory chain,[3],reduce the production of ROS
"CN(C)C(=N)N=C(N)N [metformin, reference compound]",mitochondrial membrane potential after reperfusion,[1],protected from the damage due to reperfusion
